Data: publication PMC11079024, “Identification of a family of species-selective complex I inhibitors as potential anthelmintics” (Nature Communications, 2024)
Values joined by “and” are separate entries in the source; they are usually repeats but may differ in a detail not shown here. Identical values can stand only once.

Each molecule was assayed on adult H. polygyrus (assay: microbe, parasite or virus in culture). Details: Heligmosomoides polygyrus, 24 h, adult H. polygyrus, anaerobic, replicate 1; 24 hours after treatment; affected = score equal to or lower than 1.5; read-out: Percent Worms Affected.
Type: cell-based, Heligmosomoides polygyrus
Protocol: To investigate the impact of the eleven benzimidazole derivatives under anaerobic conditions, an anaerobic chamber with an integrated incubator (Coy Laboratory Products, USA) was used. The same procedure was followed as described for the aerobic drug screening in adult H. polygyrus, but the incubation took place within the anaerobic chamber (37 °C, 85% N2, 10% CO2, 5% H2). Benzimidazole derivatives were tested at a concentration of 10 µM. For scoring, the plates had to be removed from the anaerobic chamber. The whole experiment was performed two times i.e., two independent biological replicates.
The activities of eleven benzimidazole derivatives were tested against adult H. polygyrus viability in vitro under aerobic (+, white boxplots) and anaerobic (–, coloured boxplots) conditions (see Methods). After 24-hour chemical treatment, worm viability was manually scored by an examiner using a scale from 0 (dead) to 3 (motile); DMSO was used as a negative control in both aerobic and anaerobic conditions; levamisole was used as a positive control in anaerobic conditions. The percentage of affected worms (i.e., worms with a score equal to or lower than 1.5) in each biological replicate is shown; data are from two biological replicates. Within each boxplot, black horizontal lines denote group medians, boxes span from the 25th to the 75th percentile of each group’s distribution, and whiskers extend to the maximum and minimum values. […]

Compound	killing at 10 µM [%]
Cc1nc2ccccc2n1Cc1ccc(Br)cc1 [Compound 5567167]	50
Clc1ccccc1OCCCCn1cnc2ccccc21 [Compound 7925804]	50
Clc1ccc(SCCCCn2cnc3ccccc32)cc1 [Compound 7925515]	100

Same assay, conditions: Heligmosomoides polygyrus, 24 h, adult H. polygyrus, anaerobic, replicate 2; 24 hours after treatment; affected = score equal to or lower than 1.5; read-out: Percent Worms Affected

Compound	killing at 10 µM [%]
Cc1nc2ccccc2n1Cc1ccc(Br)cc1 [Compound 5567167]	67
Clc1ccc(SCCCCn2cnc3ccccc32)cc1 [Compound 7925515]	83

Same assay, conditions: anaerobic, replicate 1; 24 hours after treatment; worms with score equal to or lower than 1.5

Compound	# of Worms Affected
Cc1nc2ccccc2n1Cc1ccc(Br)cc1 [Compound 5567167]	3
Clc1ccccc1OCCCCn1cnc2ccccc21 [Compound 7925804]	3
Clc1ccc(SCCCCn2cnc3ccccc32)cc1 [Compound 7925515]	5

Same assay, conditions: anaerobic, replicate 2; 24 hours after treatment; worms with score equal to or lower than 1.5

Compound	# of Worms Affected
Cc1nc2ccccc2n1Cc1ccc(Br)cc1 [Compound 5567167]	4
Clc1ccccc1OCCCCn1cnc2ccccc21 [Compound 7925804]	6
Clc1ccc(SCCCCn2cnc3ccccc32)cc1 [Compound 7925515]	5

Same assay, conditions: anaerobic, replicate 2; scale from 0 (dead) to 3 (motile), 24 hours after treatment

Compound	Worm viability score, individual worms (Worm1-Worm20)
Clc1ccccc1OCCCCn1cnc2ccccc21 [Compound 7925804]	2 (3×) and 1.5 (2×) and 1
